Data on 20 molecules can be found in US20230113037A1 (Bayer Aktiengesellschaft, priority 2019, published 2023).

pIC50: −log10 of the molar value. Where two headings read alike, the source gives them in different places. Where only a bound is given, the exact number is not on record here.

The target of assay [1] is T1, AHR (Homo sapiens, UniProt P35869).
T1 construct: U87 MG glioblastoma cells (ATCC #HTB-14) endogenously expressing AHR; endogenous in cells; host or cells: U87 MG glioblastoma cells (ATCC #HTB-14)
T1 sequence (P35869 11-848): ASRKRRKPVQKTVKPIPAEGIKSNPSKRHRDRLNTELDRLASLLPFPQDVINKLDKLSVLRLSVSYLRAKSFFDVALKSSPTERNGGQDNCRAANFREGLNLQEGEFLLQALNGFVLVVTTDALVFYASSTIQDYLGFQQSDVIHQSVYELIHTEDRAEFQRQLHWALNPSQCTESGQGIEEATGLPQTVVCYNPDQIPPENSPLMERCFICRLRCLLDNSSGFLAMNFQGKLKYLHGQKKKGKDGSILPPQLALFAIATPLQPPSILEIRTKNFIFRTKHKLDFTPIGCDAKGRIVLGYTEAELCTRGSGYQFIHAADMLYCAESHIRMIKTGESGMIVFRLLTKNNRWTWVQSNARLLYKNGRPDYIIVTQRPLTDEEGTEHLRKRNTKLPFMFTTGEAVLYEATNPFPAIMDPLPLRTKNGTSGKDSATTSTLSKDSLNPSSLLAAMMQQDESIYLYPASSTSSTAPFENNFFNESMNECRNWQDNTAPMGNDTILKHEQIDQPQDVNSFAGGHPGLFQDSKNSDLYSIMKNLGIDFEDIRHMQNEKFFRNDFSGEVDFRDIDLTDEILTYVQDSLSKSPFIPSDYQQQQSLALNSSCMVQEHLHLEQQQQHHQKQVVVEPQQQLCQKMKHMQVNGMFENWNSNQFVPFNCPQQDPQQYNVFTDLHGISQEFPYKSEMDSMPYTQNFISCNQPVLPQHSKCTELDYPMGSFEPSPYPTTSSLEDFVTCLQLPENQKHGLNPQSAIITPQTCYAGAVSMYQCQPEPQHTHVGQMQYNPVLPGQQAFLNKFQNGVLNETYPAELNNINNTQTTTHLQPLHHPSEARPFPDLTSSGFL
In words: In vitro assay 1: antagonism in human cell line (AHR transactivation, firefly luciferase reporter, kynurenic acid prestimulated). The conditions noted are these: AHR Antagonism Human IC50 [M]. It counts as cell-based. The gist of the method: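 Antagonism measured as loss of kynurenic acid-driven firefly luciferase from DRE reporter in stably transfected U87 MG cells; constitutive Renilla signal monitors cytotoxicity. Positive/negative control normalization, staurosporine 5 μM with 150 μM kynurenic acid as inhibition control; replicates given as mean or median.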
In general terms: Reporter assays use an easily measured gene product as a stand-in for the process of interest.

The target in assay [2] is T2, AHR (Mus musculus, UniProt P30561).
T2 sequence (P30561 1-848 P471L/N533S/M589L): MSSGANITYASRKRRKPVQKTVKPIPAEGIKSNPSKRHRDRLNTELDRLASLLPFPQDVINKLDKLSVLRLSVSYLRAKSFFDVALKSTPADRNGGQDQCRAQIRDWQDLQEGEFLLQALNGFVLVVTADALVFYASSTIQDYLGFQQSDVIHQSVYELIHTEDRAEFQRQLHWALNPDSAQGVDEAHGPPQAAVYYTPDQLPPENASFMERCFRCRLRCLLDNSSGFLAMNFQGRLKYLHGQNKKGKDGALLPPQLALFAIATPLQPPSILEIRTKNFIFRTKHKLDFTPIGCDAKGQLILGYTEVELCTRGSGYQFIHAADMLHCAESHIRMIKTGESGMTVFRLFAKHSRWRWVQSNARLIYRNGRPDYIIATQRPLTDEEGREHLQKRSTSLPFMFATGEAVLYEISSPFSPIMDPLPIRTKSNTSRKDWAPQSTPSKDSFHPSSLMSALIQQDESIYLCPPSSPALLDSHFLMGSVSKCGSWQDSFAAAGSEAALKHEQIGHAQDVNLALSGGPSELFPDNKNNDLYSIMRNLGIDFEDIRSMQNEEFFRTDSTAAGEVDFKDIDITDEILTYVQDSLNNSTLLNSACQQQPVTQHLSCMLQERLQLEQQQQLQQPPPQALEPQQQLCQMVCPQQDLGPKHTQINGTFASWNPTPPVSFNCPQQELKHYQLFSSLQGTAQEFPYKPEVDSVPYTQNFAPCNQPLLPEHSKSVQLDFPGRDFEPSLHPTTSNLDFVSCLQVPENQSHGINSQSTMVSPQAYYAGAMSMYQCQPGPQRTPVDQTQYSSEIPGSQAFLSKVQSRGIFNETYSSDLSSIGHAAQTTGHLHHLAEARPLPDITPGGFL
Description: In vitro assay 3: antagonism in mouse cell line (AHR transactivation, firefly luciferase reporter, kynurenic acid prestimulated). It counts as cell-based. The gist of the method:
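Antagonism read as reduced firefly luciferase signal (SteadyGlo) from a stably transfected AHR/DRE reporter in a mouse line prestimulated with kynurenic acid. Data normalized to controls, the full-inhibition control being cells without kynurenic acid; multiple determinations given as average or median values.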

[3] abbreviates: Hepa 1c1c7 cells, 200 μM kynurenic acid, 20 hours, firefly luciferase reporter, read-out: AHR Antagonism Mouse IC50.
Where [4] appears, read: mouse Hepa 1c1c7 cells, 200 μM kynurenic acid, 20 hours, read-out: AHR Antagonism Mouse IC50.
The mark [5] stands for this setting: read-out: AHR Antagonism Mouse IC50, Hepa 1c1c7 cells, 200 μM kynurenic acid, 20 hours, firefly luciferase reporter.

As to `Cc1nn(C)cc1-c1nc2c3cccc(Cl)c3nc(N[C@@H]3CNCCNC3=O)n2n1` [Example 951, (6R)-6-{[7-chloro-2-(1,3-dimethyl-1H-pyrazol-4-yl)[1,2,4]triazolo[1,5-c]quinazolin-5-yl]amino}-1,4-diazepan-5-one], in assay [1] (firefly luciferase reporter), inhibition was half-maximal at 3.22e-09 M (IC50). Besides, in assay [2] (setting [3]), the pIC50 – broadly, the IC50 on a negative log10 scale, so that one unit is a factor of ten – is 8.26.

As for `Cn1nccc1-c1nc2c3cccc(C(F)(F)F)c3nc(N[C@H]3CCCCNC3=O)n2n1` [Example 807, (3S)-3-{[2-(1-methyl-1H-pyrazol-5-yl)-7-(trifluoromethyl)[1,2,4]triazolo[1,5-c]quinazolin-5-yl]amino}azepan-2-one], the midpoint of inhibition in assay [1] (firefly luciferase reporter), the IC50, lay at 1.1e-07 M. Moreover, the pIC50 in assay [2] (setting [3]) is 7.20.

Consider `CC[C@@H](Nc1nc2ccccc2c2nc(-c3ccccc3S(C)(=O)=O)nn12)C(N)=O` [Example 451, (2R)-2-({2-[2-(methanesulfonyl)phenyl][1,2,4]triazolo[1,5-c]quinazolin-5-yl}amino)butanamide], for which, in assay [1], the IC50 (in general, the point on the concentration scale where inhibition reaches its midpoint) is 7.16e-06 M. Also, the pIC50 in assay [2] (setting [4]) is 6.88.

In assay [1] (firefly luciferase reporter), `C[C@@H](Nc1nc2c(C(F)(F)F)cccc2c2nc(-c3cnn(C)c3)nn12)C(=O)N1CC2(COC2)C1` [Example 880, (2R)-2-{[2-(1-methyl-1H-pyrazol-4-yl)-7-(trifluoromethyl)[1,2,4]triazolo[1,5-c]quinazolin-5-yl]amino}-1-(2-oxa-6-azaspiro[3.3]heptan-6-yl)propan-1-one] came in with an IC50 of 5.77e-08 M. In addition, the pIC50 in assay [2] (setting [5]) is 6.71.

In the case of `CCCNC(=O)[C@@H](C)Nc1nc2ccccc2c2nc(-c3cccc(OC(F)(F)F)c3)nn12` [Example 321, N-propyl-N2-{2-[3-(trifluoromethoxy)phenyl][1,2,4]triazolo[1,5-c]quinazolin-5-yl}-D-alaninamide], in assay [1], it took 2.06e-08 M to reach half-maximal inhibition (IC50). Also, in assay [2] (setting [4]), the pIC50 was 7.91.

The molecule `COc1ccc(-c2nc3c4ccccc4nc(NC4CCCCCNC4=O)n3n2)cc1` (stereo not shown) [Example 433, 3-{[2-(4-methoxyphenyl)[1,2,4]triazolo[1,5-c]quinazolin-5-yl]amino}azocan-2-one] had an IC50 in assay [1] of 1.64e-09 M. In addition, in assay [2] (setting [4]), the pIC50 is 9.19.

For the molecule `CN1CC[C@@H](Nc2nc3c(C(F)(F)F)cccc3c3nc(-c4cnn(C)c4)nn23)C1=O` [Example 733, (3R)-1-methyl-3-{[2-(1-methyl-1H-pyrazol-4-yl)-7-(trifluoromethyl)[1,2,4]triazolo[1,5-c]quinazolin-5-yl]amino}pyrrolidin-2-one], the IC50 in assay [1] is 2.58e-07 M. Also, the pIC50 in assay [2] (setting [4]) was 5.18.

In assay [1] (firefly luciferase reporter), `O=C1NCCNC[C@H]1Nc1nc2c(Cl)cccc2c2nc(-c3cnn(C4CC4)c3)nn12` [Example 966, (6R)-6-{[7-chloro-2-(1-cyclopropyl-1H-pyrazol-4-yl)[1,2,4]triazolo[1,5-c]quinazolin-5-yl]amino}-1,4-diazepan-5-one] came in with an IC50 of 9.02e-09 M. In assay [2] (setting [3]), the pIC50 is 8.03.

For the molecule `COc1cccc(-c2nc3c4ccccc4nc(N[C@H](CO)C(N)=O)n3n2)c1` [Example 79, N^2-[2-(3-methoxyphenyl)[1,2,4]triazolo[1,5-c]quinazolin-5-yl]-D-serinamide], inhibition in assay [1] was half-maximal at 4.9e-08 M (IC50). In addition, the pIC50 in assay [2] (setting [4]) is 7.28.

`CC[C@@H](Nc1nc2c(Br)cccc2c2nc(-c3ccnn3C)nn12)C(N)=O` [Example 800, (2R)-2-{[7-bromo-2-(1-methyl-1H-pyrazol-5-yl)[1,2,4]triazolo[1,5-c]quinazolin-5-yl]amino}butanamide] returned an IC50 in assay [1] (firefly luciferase reporter) of 2.37e-09 M. Besides, the pIC50 in assay [2] (setting [5]) is 8.77.

`COc1cccc(-c2nc3c4ccccc4nc(N[C@H](C)C(=O)N(C)C)n3n2)c1` [Example 110, N^2-[2-(3-methoxyphenyl)[1,2,4]triazolo[1,5-c]quinazolin-5-yl]-N,N-dimethyl-D-alaninamide] displayed an IC50 in assay [1] of 1.01e-08 M. Further, in assay [2] (setting [4]), the pIC50 was 8.31.

In assay [1], `COc1cccc(-c2nc3c4ccc(F)cc4nc(N[C@H]4CCCNC4=O)n3n2)c1` [Example 151, (3S)-3-{[8-fluoro-2-(3-methoxyphenyl)[1,2,4]triazolo[1,5-c]quinazolin-5-yl]amino}piperidin-2-one] had an IC50 of 2.36e-06 M. In assay [2] (setting [4]), the pIC50 was 6.46.

In the case of `Cc1sccc1-c1nc2c3ccccc3nc(N[C@@H]3CCCNC3=O)n2n1` [Example 348, (3R)-3-{[2-(2-methylthiophen-3-yl)[1,2,4]triazolo[1,5-c]quinazolin-5-yl]amino}piperidin-2-one], the midpoint of inhibition in assay [1], the IC50, lay at 7.76e-08 M. Besides, the pIC50 in assay [2] (setting [4]) is 7.43.

Turning to `CCn1cc(-c2nc3c4cccc(F)c4nc(N[C@@H]4CCCCNC4=O)n3n2)cn1` [Example 834, (3R)-3-{[2-(1-ethyl-1H-pyrazol-4-yl)-7-fluoro[1,2,4]triazolo[1,5-c]quinazolin-5-yl]amino}azepan-2-one], the IC50 in assay [1] (firefly luciferase reporter) turned out to be 6.25e-09 M. In assay [2] (setting [3]), the pIC50 was 7.97.

In assay [1], `Nc1cccc(-c2nc3c4ccccc4nc(N[C@@H]4CCCCNC4=O)n3n2)c1` [Example 621, (3R)-3-{[2-(3-aminophenyl)[1,2,4]triazolo[1,5-c]quinazolin-5-yl]amino}azepan-2-one] returned an IC50 of 1.02e-09 M. In addition, the pIC50 in assay [2] (setting [4]) is 9.02.

On to `O=C1NCCNC[C@H]1Nc1nc2c(C(F)(F)F)cccc2c2nc(-c3ccc(Cl)cc3OC(F)(F)F)nn12` [Example 710, (6R)-6-({2-[4-chloro-2-(trifluoromethoxy)phenyl]-7-(trifluoromethyl)[1,2,4]triazolo[1,5-c]quinazolin-5-yl}amino)-1,4-diazepan-5-one], for which the IC50 in assay [1] was 4.84e-09 M. Further, the pIC50 in assay [2] (setting [4]) is 8.74.

As for `CC[C@H](Nc1nc2c(Br)cccc2c2nc(-c3ccnn3C)nn12)C(N)=O` [Example 801, (2S)-2-{[7-bromo-2-(1-methyl-1H-pyrazol-5-yl)[1,2,4]triazolo[1,5-c]quinazolin-5-yl]amino}butanamide], in assay [1] (firefly luciferase reporter), it took 1.04e-07 M to reach half-maximal inhibition (IC50). Besides, the pIC50 in assay [2] (setting [5]) was 7.39.

In turn, `O=C1NCCC[C@H]1Nc1nc2ccccc2c2nc(-c3ccsc3)nn12` [Example 343, (3R)-3-{[2-(thiophen-3-yl)[1,2,4]triazolo[1,5-c]quinazolin-5-yl]amino}piperidin-2-one] had an IC50 in assay [1] of 6.67e-08 M. Further, the pIC50 in assay [2] (setting [4]) is 6.75.

Regarding `O=C1NCCCC[C@H]1Nc1nc2ccccc2c2nc(-c3ccc(Cl)cc3)nn12` [Example 6], in assay [1], half-maximal inhibition (IC50) was put at 5.93e-10 M. Moreover, the pIC50 in assay [2] (setting [4]) is less than 5.00.

Regarding `CCCC[C@H](Nc1nc2ccccc2c2nc(-c3cccc(OC(F)(F)F)c3)nn12)C(N)=O` (racemic) [Example 322, N^2-{2-[3-(trifluoromethoxy)phenyl][1,2,4]triazolo[1,5-c]quinazolin-5-yl}-norleucinamide], the IC50 in assay [1] is 6.42e-08 M. Besides, the pIC50 in assay [2] (read-out: AHR Antagonism Mouse IC50, mouse Hepa 1c1c7 cells, 200 μM kynurenic acid, 20 hours) was 7.45.
